Test [1] has as its system washed platelets from C57BL/6J mice. The test can be described thus: Platelet adhesion and spreading on fibrinogen. In kind it is cell-based. The settings on record: EGTA 100 μM. The procedure: Platelets were then added with buffer or 1 mM CaCl2). Washed platelets suspended in Tyrode's solution with 1 mM CaCl2 were used as a control. Platelets were then added to polystyrene dishes coated with 50 μg/mL of fibrinogen and incubated at 37° C. for 60 minutes and labeled with Rhodamine-Phalloidin and photographed using a fluorescence microscope. […] This conclusion was further confirmed by a fibrinogen binding assay.

Test [2] has as its system cold-stored PRP from C57BL/6-Tg(CAGEGFP)1 Osb/J. The test can be described thus: Clearance of transfused cold-stored GFP platelets in PRP. In kind it is in vivo, C57BL/6J mice. The settings on record: inclusion of EGTA, retro-orbital injection. Here is the method:
C57BL/6J mice were injected retro-orbitally with fresh or cold-stored PRP (2.5×10^8 per mouse) from C57BL/6-Tg(CAGEGFP)1 Osb/J. Blood was collected from the recipients and platelets were analyzed by flow cytometry, n=4). Rapid clearance of cold-stored platelets in PRP is less severe than washed platelets.

The test system of the next test is PRP from C57BL/6 mice. Put plainly: Cold storage of mouse PRP: aggregation and platelet counts. It counts as cell-based. The settings on record: PRP with EGTA. The text has this:
This conclusion is drawn based on the experiments using washed platelets. Although a small portion of platelet products uses platelet additive solution (PAS), most platelet products used for transfusion are in plasma. Therefore, whether PRP has a similar phenotype as observed in washed platelets was examined.

In test [3] the test system is PRP prepared from healthy donors. Put plainly: Cold storage of human PRP: platelet counts. In kind it is cell-based. The settings on record: human PRP (ACD anticoagulant), various time points. The procedure:
Platelet counts were monitored at various time points. […] Fibrinogen binding to platelets increased after cold storage (FIG. 14B). […] The amount of serotonin secreted in the supernatant was then measured.

The subject of test [4] is washed platelets from C57BL/6J mice. The test can be described thus: Thrombin-induced platelet aggregation. It counts as cell-based. Here is the method: Platelets were then added with buffer or 1 mM CaCl2). Washed platelets suspended in Tyrode's solution with 1 mM CaCl2 were used as a control. Platelet aggregation was induced by addition of thrombin (0.025 U/ml).
In test [5] the test system is washed platelets from C57BL/6 mice. Put plainly: Cold storage of washed mouse platelets: aggregation and single platelet counts. The settings on record: presence of EGTA, 4° C. for various time. In kind it is cell-based. Here is the method: To investigate the mechanism of the rapid clearance after cold storage, washed platelets from C57BL/6 mice were suspended in Ca^++ free Tyrode's solution (12 mM NaHCO3, 138 mM NaCl, 5.5 mM glucose, 2.9 mM KCl, 2 mM MgCl2, 0.42 mM NaH2PO4, 10 mM HEPES, pH 7.4). and stored at RT or 4° C. Washed platelets from C57BL/6 mice were stored at RT or 4° C. for 24 hours. After storage, platelets were incubated with Oregon Green-labeled fibrinogen at 22° C. for 30 min. Fibrinogen binding to platelets was analyzed by flow cytometry. […] To confirm this observation, single platelet count was measured using a HEMAVET HV950FS multispecies hematology analyzer. Indeed, platelet counts were reduced dramatically after platelets were stored at 4° C. for over 24 hours (FIG. 1B).
To determine the molecular mechanism by which cold induces platelet activation, washed platelets prepared from C57BL/6 mice were stored at RT, cold, or cold with O-sialoglycoprotein endopeptidase (OSGE). […] GPIbα-dependent platelet activation is one of the major mechanisms leading to rapid clearance of cold-stored platelets.
If cold-induced aggregation is due to integrin activation, integrin inhibitors should be able to inhibit this process. Washed platelets from C57BL/6 mice, suspended in Ca^++ free Tyrode's solution, were added with 1 mM RGDS and stored at 4° C. for 24 hours. […]

Another test relates to washed GFP platelets. The test can be described thus: Clearance of transfused cold-stored washed GFP platelets (flow cytometry). In kind it is in vivo, C57BL/6J mice. The settings on record: 50 uM EGTA, stored at 4° C. for 24 hours, retro-orbital injection. The procedure:
To monitor the life span of transfused platelets in circulation, a method that can easily differentiate the transfused platelets from recipient platelets was developed. Platelets from C57BL/6-Tg(CAGEGFP)1 Osb/J mice (GFP mice) (From Jackson Laboratories) are GFP positive that are distinct from the recipient platelets by flow cytometry assay (FIG. 6A). C57BL/6J mice were injected retro-orbitally with washed GFP platelets (2.5×10^8 per mouse). 60 μl blood was collected from mice and PRP was analyzed by flow cytometry. Quantitative results were expressed as percentage of survived transfused platelets (GFP positive cells at 5 min after transfusion was set to 100%; mean±SD; n=5). […]
C57BL/6J mice were injected retro-orbitally with fresh washed GFP platelets or GFP platelets stored at 4° C. for 24 hours (2.5×10^8 per mouse) with or without 1 mM RGDS. Blood was collected from mice and platelets were analyzed by flow cytometry. Quantitative results were expressed as percentage of survived transfused platelets (GFP positive cells of transfused fresh platelets at 5 min after transfusion was set to 100%, n=4). […]
Blood was collected from mice and platelets were analyzed by flow cytometry. Quantitative results were expressed as percentage of survived transfused platelets (GFP positive cells of transfused fresh platelets at 5 min after transfusion was set to 100%, n=4). […]

The next test has as its target T1, αIIbβ3 (Mus musculus, UniProt O54890+Q9QUM0).
T1 construct: Washed platelets from C57BL/6J mice suspended in Tyrode's solution; endogenous in cells; host or cells: washed platelets from C57BL/6J mice
T1 sequence (Q9QUM0 32-1033): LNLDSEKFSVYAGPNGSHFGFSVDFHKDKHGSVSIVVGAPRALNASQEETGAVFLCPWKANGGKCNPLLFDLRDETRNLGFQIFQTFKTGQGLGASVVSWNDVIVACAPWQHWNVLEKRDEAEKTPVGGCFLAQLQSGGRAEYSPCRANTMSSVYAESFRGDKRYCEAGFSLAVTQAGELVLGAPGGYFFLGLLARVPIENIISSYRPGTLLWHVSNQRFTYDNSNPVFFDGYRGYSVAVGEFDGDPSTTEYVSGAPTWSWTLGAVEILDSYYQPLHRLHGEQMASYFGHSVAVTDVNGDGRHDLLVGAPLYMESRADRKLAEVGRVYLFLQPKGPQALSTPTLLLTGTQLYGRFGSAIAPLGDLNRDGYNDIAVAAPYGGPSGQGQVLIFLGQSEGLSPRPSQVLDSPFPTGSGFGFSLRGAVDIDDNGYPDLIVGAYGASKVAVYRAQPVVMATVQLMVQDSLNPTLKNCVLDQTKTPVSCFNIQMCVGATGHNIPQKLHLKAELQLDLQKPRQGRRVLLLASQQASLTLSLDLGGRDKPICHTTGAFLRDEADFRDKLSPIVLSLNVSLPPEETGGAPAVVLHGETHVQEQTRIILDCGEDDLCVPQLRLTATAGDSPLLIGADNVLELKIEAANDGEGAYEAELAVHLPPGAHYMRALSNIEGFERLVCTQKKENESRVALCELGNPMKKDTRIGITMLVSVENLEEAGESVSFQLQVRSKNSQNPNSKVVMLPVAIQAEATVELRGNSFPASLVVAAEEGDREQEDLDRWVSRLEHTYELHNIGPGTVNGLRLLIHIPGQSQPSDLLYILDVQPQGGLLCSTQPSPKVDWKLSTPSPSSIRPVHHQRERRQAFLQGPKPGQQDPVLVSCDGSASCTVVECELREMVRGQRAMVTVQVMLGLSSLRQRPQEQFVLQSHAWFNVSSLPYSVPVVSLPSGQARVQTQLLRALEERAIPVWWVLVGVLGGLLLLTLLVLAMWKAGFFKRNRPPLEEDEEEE
T1 sequence (O54890 26-787): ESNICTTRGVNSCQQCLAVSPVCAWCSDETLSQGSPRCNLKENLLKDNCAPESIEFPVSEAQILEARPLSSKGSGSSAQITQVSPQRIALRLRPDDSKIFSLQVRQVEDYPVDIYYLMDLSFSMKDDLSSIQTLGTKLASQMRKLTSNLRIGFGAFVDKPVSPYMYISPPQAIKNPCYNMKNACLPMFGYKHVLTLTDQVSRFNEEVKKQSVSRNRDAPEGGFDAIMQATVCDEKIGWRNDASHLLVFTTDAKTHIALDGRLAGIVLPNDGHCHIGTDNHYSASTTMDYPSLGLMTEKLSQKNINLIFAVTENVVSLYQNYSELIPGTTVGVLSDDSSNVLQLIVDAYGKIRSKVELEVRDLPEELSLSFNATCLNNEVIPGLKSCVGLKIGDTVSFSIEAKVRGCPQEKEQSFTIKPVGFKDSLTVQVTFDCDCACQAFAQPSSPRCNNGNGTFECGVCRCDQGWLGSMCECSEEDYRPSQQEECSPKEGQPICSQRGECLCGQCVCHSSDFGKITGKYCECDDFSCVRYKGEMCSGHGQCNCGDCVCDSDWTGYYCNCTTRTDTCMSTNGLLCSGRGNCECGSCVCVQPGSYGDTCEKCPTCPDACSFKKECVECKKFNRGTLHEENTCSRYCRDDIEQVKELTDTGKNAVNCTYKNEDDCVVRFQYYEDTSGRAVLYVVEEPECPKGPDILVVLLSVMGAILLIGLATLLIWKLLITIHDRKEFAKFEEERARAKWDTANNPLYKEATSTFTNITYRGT
Put plainly: Thrombin-induced fibrinogen binding to platelets (integrin ligand binding function). It counts as cell-based, C57BL/6J mice. The settings on record: 100 μM EGTA. Here is the method:
Platelets were then added with buffer or 1 mM CaCl2). Washed platelets suspended in Tyrode's solution with 1 mM CaCl2 were used as a control. Platelets were incubated with Oregon Green-labeled fibrinogen and thrombin (0.1 U/ml) at 22° C. for 30 min. Quantitative results were expressed as fibrinogen binding indices (geomean of fluorescence intensity of stimulated platelets/geomean of fluorescence intensity of unstimulated platelets; n=3).

Experimental findings from US20190255114A1, “STORAGE OF PLATELETS” (University of Kentucky Research Foundation, priority 2018, published 2019) are described below.

Molecules are shown by their SMILES.

For the compound `O=C(O)CN(CCOCCOCCN(CC(=O)O)CC(=O)O)CC(=O)O` [EGTA, ethylene glycol-bis(β-aminoethyl ether)-N,N,N′,N′-tetraacetic acid], the “platelet adhesion and spreading on fibrinogen” value in test [1] (50 μg/mL fibrinogen, 37° C. for 60 minutes) is “inhibited platelet adhesion and spreading on fibrinogen”. The “reversal of the inhibition of adhesion and spreading” value in test [1] (then 1 mM CaCl2) is given as “completely reversed”. Moreover, the “quick clearance of cold-stored platelets in PRP” value in test [2] is recorded as “significantly reduced quick clearance”. Also, the “reduction in platelet counts by cold storage” value with PRP from C57BL/6 mice (4° C. for various time) is listed as “effectively inhibited reduction in platelet counts”. For the same compound, the “platelet aggregation in PRP” value with PRP from C57BL/6 mice (cold storage) was “inhibited platelet aggregation”. For the same compound, the “decrease of platelet counts after storage at 4° C.” value in test [3] was “inhibited”. Moreover, the “platelet aggregation induced by thrombin” value in test [4] (EGTA 100 μM at RT, thrombin 0.025 U/ml) was “inhibited platelet aggregation”. Further, the “reversibility of the inhibition of platelet aggregation” value in test [4] (EGTA 100 μM, then 1 mM CaCl2) is on record as “reversible”. Moreover, in test [5], the cold-induced platelet aggregation result was “completely inhibited cold-induced platelet aggregation” and the “reduction in platelet counts” value is given as “completely inhibited”. Besides, in the test with washed GFP platelets, the “platelets that stayed in circulation for more than 2 hours” value is listed as “About 75%” and the “rapid clearance of cold-stored platelets” value is reported as “significantly inhibited rapid clearance”. In addition, at αIIbβ3 (then 1 mM CaCl2), the “reversal of the inhibition of fibrinogen binding” value is listed as “reversed”. Besides, the “thrombin-induced fibrinogen binding to platelets” value at αIIbβ3 (thrombin 0.1 U/ml, 22° C. for 30 min) is reported as “completely inhibited”.
